Laboratory results published in ChEMBL document CHEMBL1201862, “PubChem BioAssay data set” (2004).
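Five compound concentrations were applied to cells in 96-well plates for 48 hours; endpoints were derived by simple linear interpolation of the resulting dose-response curve. Abbreviation: GI50, concentration required for 50% inhibition of growth.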 The source made the active and inactive calls. Rule as the data show it: active = GI50 up to about 1.1 µM and inactive = higher.

Key:
Test in all cases: NCI anticancer screen, dose series, 48 h
[1] = system: EKVX
[2] = system: SK-MEL-28
[3] = system: IGROV-1
[4] = system: HL-60
[5] = system: DLD-1
[6] = system: DMS-273
[7] = system: HCT-116
[8] = system: SF-539
[9] = system: A498
[10] = system: COLO 205
[11] = system: DMS-114
[12] = system: CAKI-1
[13] = system: OVCAR-3
[14] = system: M14
[15] = system: U-251
[16] = system: UO-31
[17] = system: ACHN
[18] = system: SF-268
[19] = system: NCI-H23
[20] = system: HOP-62
[21] = system: SK-MEL-2
[22] = system: SNB-75
[23] = system: SF-295
[24] = system: UACC-257
[25] = system: A549
[26] = system: SW-620
[27] = system: OVCAR-4
[28] = system: HCC 2998
[29] = system: OVCAR-8
[30] = system: SNB-19
[31] = system: 786-0
[32] = system: SR
[33] = system: MOLT-4
[34] = system: NCI-H460
[35] = system: RXF 393
[36] = system: K562
[37] = system: SNB-78
[38] = system: RPMI-8226
[39] = system: LXFL 529
[40] = system: LOX IMVI
[41] = system: HT-29
[42] = system: TK-10
[43] = system: SN12C
[44] = system: HCT-15
[45] = system: KM12
[46] = system: CCRF-CEM
[47] = system: T47D
[48] = system: DU-145
[49] = system: UACC-62
[50] = system: MDA-N
[51] = system: MDA-MB-435
[52] = system: NCI-H226
[53] = system: OVCAR-5
[54] = system: NCI/ADR-RES
[55] = system: HOP-92
[56] = system: SK-MEL-5
[57] = system: MCF7
[58] = system: NCI-H522
[59] = system: SK-OV-3
[60] = system: BT-549
[61] = system: MDA-MB-231
[62] = system: Hs-578T
[63] = system: Malme-3M
[64] = system: PC-3

In the case of `O=C(O)CCSC(=O)Nc1ccc([N+](=O)[O-])cc1`, the GI50 [1] is reported as > 100 µM (inactive), the GI50 [2] is reported as > 100 µM (inactive) and the GI50 [3] is reported as 72.8 µM (inactive). The GI50 [4] was > 100 µM (inactive), the GI50 [5] was > 100 µM (inactive) and the GI50 [6] was > 100 µM (inactive). For the same molecule, the GI50 [7] was > 100 µM (inactive), the GI50 [8] was > 100 µM (inactive) and the GI50 [9] was > 100 µM (inactive). The GI50 [10] was > 100 µM (inactive), the GI50 [11] was > 100 µM (inactive) and the GI50 [12] was > 100 µM (inactive). For the same molecule, the GI50 [13] was > 100 µM (inactive), the GI50 [14] was > 100 µM (inactive) and the GI50 [15] was > 100 µM (inactive). The GI50 [16] was > 100 µM (inactive), the GI50 [17] was > 100 µM (inactive) and the GI50 [18] was > 100 µM (inactive). The GI50 [19] was > 100 µM (inactive), the GI50 [20] was > 100 µM (inactive) and the GI50 [21] was > 100 µM (inactive). For the same molecule, the GI50 [22] was 19.4 µM (inactive), the GI50 [23] was > 100 µM (inactive) and the GI50 [24] was > 100 µM (inactive). The GI50 [25] was > 100 µM (inactive), the GI50 [26] was > 100 µM (inactive) and the GI50 [27] was > 100 µM (inactive). The GI50 [28] was > 100 µM (inactive), the GI50 [29] was > 100 µM (inactive) and the GI50 [30] was > 100 µM (inactive). For the same molecule, the GI50 [31] was > 100 µM (inactive), the GI50 [32] was > 100 µM (inactive) and the GI50 [33] was > 100 µM (inactive). The GI50 [34] was > 100 µM (inactive), the GI50 [35] was > 100 µM (inactive) and the GI50 [36] was > 100 µM (inactive). The GI50 [37] was > 100 µM (inactive), the GI50 [38] was > 100 µM (inactive) and the GI50 [39] was > 100 µM (inactive). For the same molecule, the GI50 [40] was > 100 µM (inactive), the GI50 [41] was > 100 µM (inactive) and the GI50 [42] was > 100 µM (inactive). The GI50 [43] was > 100 µM (inactive), the GI50 [44] was > 100 µM and the GI50 [45] was > 100 µM (inactive). The GI50 [46] was > 100 µM (inactive).

In the case of `CC(C)C[C@H](NC(=O)[C@@H](Cc1cccc2ccccc12)NC(=O)N1CCOCC1)B(O)O`, the GI50 [47] is reported as 2.45 µM (inactive), the GI50 [48] is reported as 10.9 µM (inactive) and the GI50 [49] is reported as 4.02 µM (inactive). The GI50 [50] was 2.59 µM (inactive), the GI50 [1] was 14.3 µM (inactive) and the GI50 [51] was 1.92 µM (inactive). For the same molecule, the GI50 [2] was 2.14 µM (inactive), the GI50 [3] was 5.06 µM (inactive) and the GI50 [4] was 2.77 µM (inactive). The GI50 [7] was 2.24 µM (inactive), the GI50 [8] was 2.04 µM (inactive) and the GI50 [9] was 4.05 µM (inactive). For the same molecule, the GI50 [52] was 1.61 µM (inactive), the GI50 [10] was 16.4 µM (inactive) and the GI50 [12] was 11.1 µM (inactive). For the same molecule, the GI50 [13] was 2.61 µM (inactive), the GI50 [53] was 3.19 µM (inactive) and the GI50 [54] was 51.4 µM (inactive). The GI50 [14] was 3.11 µM (inactive), the GI50 [15] was 4.57 µM (inactive) and the GI50 [16] was 19.5 µM (inactive). The GI50 [17] was 9.25 µM (inactive), the GI50 [18] was 2.96 µM (inactive) and the GI50 [19] was 2.9 µM (inactive). The GI50 [20] was 16 µM (inactive), the GI50 [21] was 3.33 µM (inactive) and the GI50 [55] was 2.67 µM (inactive). The GI50 [56] was 3.13 µM (inactive), the GI50 [22] was 1.18 µM (inactive) and the GI50 [23] was 14 µM (inactive). For the same molecule, the GI50 [24] was 2.18 µM (inactive), the GI50 [25] was 19.8 µM (inactive) and the GI50 [57] was 5.43 µM (inactive). The GI50 [26] was 3.14 µM (inactive), the GI50 [27] was 4.72 µM (inactive) and the GI50 [28] was 2.01 µM (inactive). The GI50 [29] was 16.7 µM (inactive), the GI50 [58] was 1.92 µM (inactive) and the GI50 [59] was 6.85 µM (inactive). The GI50 [60] was 3.99 µM (inactive), the GI50 [61] was 4.48 µM (inactive) and the GI50 [30] was 9.77 µM (inactive). The GI50 [31] was 4.79 µM (inactive), the GI50 [32] was 3.13 µM (inactive) and the GI50 [33] was 3.2 µM (inactive). The GI50 [34] was 18.5 µM (inactive), the GI50 [35] was 2.4 µM (inactive) and the GI50 [36] was 3.55 µM (inactive). For the same molecule, the GI50 [38] was 2.52 µM (inactive), the GI50 [62] was 3.84 µM (inactive) and the GI50 [40] was 2.36 µM (inactive). The GI50 [41] was 2.64 µM (inactive), the GI50 [63] was 1.58 µM (inactive) and the GI50 [42] was 6.47 µM (inactive). For the same molecule, the GI50 [43] was 5.55 µM (inactive), the GI50 [64] was 7.82 µM (inactive) and the GI50 [44] was 21.9 µM. The GI50 [45] was 5.13 µM (inactive) and the GI50 [46] was 1.57 µM (inactive).

`O=P(O)(O)CN1CCNCCN(CP(=O)(O)O)CC1` was tested, and the GI50 [47] was > 68.4 µM (inactive), the GI50 [48] was > 100 µM (inactive) and the GI50 [49] was 38.8 µM (inactive). The GI50 [50] was 13.6 µM (inactive), the GI50 [1] was > 80.2 µM (inactive) and the GI50 [51] was 36.5 µM (inactive). For the same molecule, the GI50 [2] was > 100 µM (inactive), the GI50 [3] was 33.3 µM (inactive) and the GI50 [4] was 4.21 µM (inactive). For the same molecule, the GI50 [7] was 8.93 µM (inactive), the GI50 [8] was > 22.1 µM (inactive) and the GI50 [9] was 33.7 µM (inactive). For the same molecule, the GI50 [52] was > 38.5 µM (inactive), the GI50 [10] was 3.18 µM (inactive) and the GI50 [12] was > 90.6 µM (inactive). The GI50 [13] was > 62.7 µM (inactive), the GI50 [53] was > 42.3 µM (inactive) and the GI50 [54] was > 19.9 µM (inactive). For the same molecule, the GI50 [14] was 37.9 µM (inactive), the GI50 [15] was > 100 µM (inactive) and the GI50 [16] was > 100 µM (inactive). For the same molecule, the GI50 [17] was > 100 µM (inactive), the GI50 [18] was 75.2 µM (inactive) and the GI50 [19] was 54.6 µM (inactive). The GI50 [20] was > 100 µM (inactive), the GI50 [21] was 46 µM (inactive) and the GI50 [55] was > 34 µM (inactive). For the same molecule, the GI50 [56] was 14 µM (inactive), the GI50 [22] was > 54.5 µM (inactive) and the GI50 [23] was 41.5 µM (inactive). For the same molecule, the GI50 [24] was > 55.3 µM (inactive), the GI50 [25] was 15.2 µM (inactive) and the GI50 [57] was 8.79 µM (inactive). For the same molecule, the GI50 [26] was 19.3 µM (inactive), the GI50 [27] was > 100 µM (inactive) and the GI50 [28] was 12.3 µM (inactive). The GI50 [29] was 28.4 µM (inactive), the GI50 [58] was 19.9 µM (inactive) and the GI50 [59] was 23.7 µM (inactive). For the same molecule, the GI50 [60] was > 100 µM (inactive), the GI50 [61] was 36 µM (inactive) and the GI50 [30] was > 100 µM (inactive). The GI50 [31] was 23 µM (inactive), the GI50 [32] was 9.44 µM (inactive) and the GI50 [33] was 12.5 µM (inactive). The GI50 [34] was 11.3 µM (inactive), the GI50 [35] was 28.8 µM (inactive) and the GI50 [36] was 6.32 µM (inactive). For the same molecule, the GI50 [38] was 20.4 µM (inactive), the GI50 [62] was > 100 µM (inactive) and the GI50 [40] was 25.9 µM (inactive). The GI50 [41] was 4.26 µM (inactive), the GI50 [63] was > 37.3 µM (inactive) and the GI50 [42] was > 49.4 µM (inactive). For the same molecule, the GI50 [43] was > 100 µM (inactive), the GI50 [64] was 52.4 µM (inactive) and the GI50 [44] was 8.89 µM. For the same molecule, the GI50 [45] was 28.6 µM (inactive) and the GI50 [46] was 23.6 µM (inactive).
